Earlier results on one compound are cited in PubChem BioAssay AID1259409 (Chemical Carcinogenesis Research Information System (CCRIS), 2018).

For the data set, the system named is rodent chemically induced tumor inhibition, incidence and multiplicity. The data set can be described thus: CCRIS tumor inhibitor studies. Particulars: Carcinogen: N-METHYL-N-NITROSOUREA, 684-93-5, Dose [Inhibitor]: 0, Route [Inhibitor]: ORAL, Species: RAT, Strain/Sex: SPRAGUE-DAWLEY/FEMALE, Target Tissue: Type of Lesion: MAMMARY GLAND: ADENOCARCINOMA, Dose [Carcinogen]: 45 MG/KG BW ONCE, Promoter: NONE USED.

For the compound `C=C/C(C)=C/C=C/C(C)=C/C=C1/C(C)=CCCC1(C)C`, the “tumour outcome (control, treated, inhibition, significance)” value by setting is: (67 MG/KG DIET FOR FOR 88 D BEGINNING 2 D POST CARCINOGEN DOSE (STUDY DURATION: 90 D)) 100%, 93%, 7%, not significant; (134 MG/KG DIET FOR 88 D BEGINNING 2 D POST CARCINOGEN DOSE (STUDY DURATION: 90 D)) 100%, 100%, 0%, not significant; (268 MG/KG DIET FOR 88 D BEGINNING 2 D POST CARCINOGEN DOSE (STUDY DURATION: 90 D)) 100%, 87%, 13%, p<0.05; (536 MG/KG DIET FOR 88 D BEGINNING 2 D POST CARCINOGEN DOSE (STUDY DURATION: 90 D)) 100%, 80%, 20%, p<0.05.
